Measurements: patent US11945782B2, “Composition and methods of use of tetrahydroisoquinoline small molecules to bind and modulate PCSK9 protein activity” (SRX CARDIO, LLC, priority 2015, dated 2024)

Key:
[1] = molecular target: T1, recombinant PCSK9 (Homo sapiens, UniProt Q8NBP7); test: DiI-LDL Uptake Assay in HepG2 cells with recombinant PCSK9; format: cell-based; conditions: 2.5 ug/mL PCSK9, read-out: Uptake Assay: % Inhibition of 2.5 ug/mL recombinant PCSK9 @ X compound dose; for inhibition at 0.313 µM: 0.313 uM compound; for inhibition at 10 µM: 10 uM compound; for inhibition at 1.25 µM: 1.25 uM compound
Description: (§1) The cells were incubated in a 96-well plate for a total of 16 h in the absence or presence of recombinant PCSK9 (final concentration 2.5 ug/ml) protein alone or recombinant PCSK9 protein pre-mixed with indicated concentration of experimental compounds (Cmpd #). After 16 h, DiI-LDL (final concentration 5 ug/ml) was added to the incubation mixtures. After 4 h, cells are stained with Hoechst 33342 for 30 minutes, then rinsed with phosphate buffered saline, and then a final volume of 100 ul phosphate buffered saline was added to each well. The fluorescence was measured (DiI: excitation at 550 nm and emission at 590 nm; Hoechst: excitation at 355 nm, emission at 460 nm). […] The cells were incubated in 24-well plates for a total of 6 h in the absence or presence of recombinant PCSK9 protein (final concentration of 5.0 ug/ml), or in the presence of PCSK9 protein mixed with indicated concentration of experimental compound (Cmpd #). After 6 hours, the cells were released from the plate, stained with anti-LDLR antibody, then rinsed, counterstained with DAN, and then measured by fluorescence activated cell sorting (FACS). The percent recombinant PCSK9 inhibition was calculated as [‘Compound Dose LDLR Fluorescence’-‘5.0 ug/ml PCSK9-treated LDLR Fluorescence’]/[‘PCSK9 Basal LDLR Fluorescence’-‘5.0 ug/ml PCSK9-treated LDLR Fluorescence’]×100%.
Cellular DiI-LDL uptake can be measured using protocols adapted from Benjannet et al., “Effects of the prosegment and pH on the activity of PCSK9: evidence for additional processing events” J Biol Chem. 285(52): 40965-40978 (2010) and “Composition and Methods of Use of Small Molecules as Binding Ligands for the Modulation of Proprotein Convertase Subtilisin/Kexin Type 9 (PCSK9) Protein Activity” (WO2016029037), which are incorporated by reference in their entirety.
Cells, such as HepG2, HuH7, FL83B, or a cell line transfected with a short-hairpin PCSK9 knockdown sequence such as HepG2/shPCSK9, HuH7/shPCSK9, or FL83B/shPCSK9 are plated and cultured at 37° C. for 12-24 h. Culture media is removed and replaced with fresh lipoprotein-depleted culture media supplemented with 5 ug/mL of DiI-LDL (Kalen Biomedical) or lipoprotein-depleted culture media supplemented with 5 ug/mL of Dil-LDL plus a predetermined concentration of recombinant PCSK9, for example a 10 nM final concentration of PCSK9. Lipoprotein-depleted culture media can be composed of DMEM (Invitrogen) with 10% lipoprotein-depleted fetal bovine serum (Kalen Biomedical) and supplemented with penicillin-streptomycin (Life Technologies). Cells are dosed with small molecule test compounds at doses ranging from 0 nM to 100 uM.
Following an incubation period of specified length, such as 6 hours, Hoechst 33342 (AnaSpec) stain is added to the cell media per manufacturer's instructions and incubated for a specified length (e.g., 30 minutes). The lipoprotein-depleted media is removed and cells rinsed three times with phosphate buffered saline. A final volume of phosphate buffered saline is added back to the wells. The DiI fluorescence is measured with a plate reader using an exciting wavelength of 550 nm and the resulting emission at 590 nm is measured. The Hoechst stain fluorescence is measured with a plate reader using an exciting wavelength of 355 nm and the resulting emission at 460 nm is measured.
Cells are analyzed by for both Hoechst stain (DNA content) and DiI-LDL fluorescence. Cells incubated with small molecule compounds that are inhibitors of PCSK9 will be expected to show increased amounts of DiI-LDL fluorescence, relative to control (no compound) specimens, and cells incubated with small molecule compounds that are activators of PCSK9 will be expected to show decreased amounts of DiI-LDL fluorescence relative to control (no compound) specimens.

[2] = molecular target: T1, recombinant PCSK9; test: LDLR FACS (flow) Assay in HuH7 cells with recombinant PCSK9; format: cell-based; conditions: 5.0 ug/mL PCSK9, read-out: LDLR Flow Assay: % Inhibition of 5.0 ug/mL recombinant PCSK9 @ X compound dose; for inhibition at 5 µM: Huh-7, 5 uM compound
Description: as §1
LDLR levels can be measured using flow cytometry or fluorescence activated cell sorting (FACS) using protocols adapted from Benjannet et al., “Effects of the prosegment and pH on the activity of PCSK9: evidence for additional processing events” J Biol Chem. 285(52): 40965-40978 (2010) and “Composition and Methods of Use of Small Molecules as Binding Ligands for the Modulation of Proprotein Convertase Subtilisin/Kexin Type 9 (PCSK9) Protein Activity” (WO2016029037), which are incorporated by reference in their entirety.
Cells, such as HepG2, HuH7, FL83B, or a cell line transfected with a short-hairpin PCSK9 knockdown sequence such as HepG2/shPCSK9, HuH7/shPCSK9, or FL,83B/shPCSK9 are plated and cultured at 37° C. for 12-24 h. Culture media is removed and replaced with fresh culture media or culture media plus a predetermined amount of recombinant PCSK9, for example a 10 nM final concentration of PCSK9. Cell culture media can be composed of DMEM (Invitrogen) with 10% fetal bovine serum (Life Technologies) supplemented with penicillin-streptomycin (Life Technologies). Cells are dosed with small molecule test compounds at doses ranging from 0 nM to 100 uM
Following an incubation period of specified length, such as 6 hours, the media is removed and the cells are rinsed three times with a rinse solution (i.e., Dulbecco's phosphate buffered saline (D-PBS, Life Technologies) supplemented with 0.5% bovine serum albumin (BSA, Sigma) and 1 g/L glucose (Sigma)). The fluid is then removed, and cells are released from the plate using TrypLE Express (Life Technologies) per manufacturer's recommend procedures, such as incubation for 5-10 minutes at 37° C. The TyrpLE-Cell suspension is then transferred to 15 mL conical tubes, volume is increased to 2 mL with D-PBS supplemented with 0.5% BSA and […] glucose, and the tubes are centrifuged at 250× gravity for 10 minutes. Following centrifugation, the supernatant is aspirated and the cell pellet is resuspended in 100 uL D-PBS containing 0.5% BSA and […] glucose, and cells are labeled with anti-LDLR antibody per the manufacturer's recommended procedure. The cells are then pelleted by centrifugation, resuspended in 300 uL PBS and counterstained with 4′,6-Diamidino-2-phenylindole (DAPI, Cayman Chemical) as a cell viability marker, other cell viability markers such as 7-aminoactinomycin D (7AAD, Life Technologies) have also been described in the art.
Cells are analyzed for both cell viability marker (dead cells) and LDLR in live cells using a flow cytometer per the manufacturer's operating manual. […]

T1 sequence (Q8NBP7 153-692): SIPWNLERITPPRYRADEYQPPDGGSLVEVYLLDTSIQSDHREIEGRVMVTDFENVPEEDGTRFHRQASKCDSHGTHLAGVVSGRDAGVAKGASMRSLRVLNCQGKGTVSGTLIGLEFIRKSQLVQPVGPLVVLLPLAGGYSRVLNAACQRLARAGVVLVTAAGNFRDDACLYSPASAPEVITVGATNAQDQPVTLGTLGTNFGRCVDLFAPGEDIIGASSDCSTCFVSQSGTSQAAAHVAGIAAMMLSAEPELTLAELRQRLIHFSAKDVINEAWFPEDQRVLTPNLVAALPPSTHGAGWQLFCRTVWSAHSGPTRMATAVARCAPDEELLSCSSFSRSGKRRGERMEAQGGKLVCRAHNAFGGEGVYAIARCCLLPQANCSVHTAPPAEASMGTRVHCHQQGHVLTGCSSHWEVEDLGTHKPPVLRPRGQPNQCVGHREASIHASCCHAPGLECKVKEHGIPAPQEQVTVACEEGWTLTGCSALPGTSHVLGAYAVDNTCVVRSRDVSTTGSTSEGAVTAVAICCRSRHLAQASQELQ

SMILES	inhibition at 0.313 µM [1]	inhibition at 10 µM [1]	inhibition at 1.25 µM [1]	inhibition at 5 µM [2]	also measured
c1ccc(-c2ccc3c(c2)CNCC3)cc1 [Compound 1, 7-phenyl-1,2,3,4-tetrahydroisoquinoline]	~45%	> 100%	–	–	inhibition at 0.625 µM ([2]; Huh-7, 0.625 uM compound): ~10%; inhibition at 1.25 µM ([2]; Huh-7, 1.25 uM compound): ~15%; inhibition at 20 µM ([2]; Huh-7, 20 uM compound): ~20%
Cc1cc2c(cc1-c1ccccc1F)C(=O)NCC2 [Compound 5, 7-(2-fluorophenyl)-6-methyl-3,4-dihydroisoquinolin-1(2H)-one]	–	–	~33%	–	inhibition at 10 µM ([2]; Huh-7, 10 uM compound): ~10%
Cc1cc2c(cc1-c1ccccc1F)CNCC2 [Compound 2, 7-(2-fluorophenyl)-6-methyl-1,2,3,4-tetrahydroisoquinoline]	~50%	> 100%	–	~19%	–
Cc1cc(-c2ccccc2F)cc2c1CCNC2 [Compound 3, 7-(2-fluorophenyl)-5-methyl-1,2,3,4-tetrahydroisoquinoline]	–	> 100%	~42%	–	–
Cc1cc(-c2ccccc2F)cc2c1CCNC2=O [Compound 4, 7-(2-fluorophenyl)-5-methyl-3,4-dihydroisoquinolin-1(2H)-one]	–	–	–	~10%	inhibition at 20 µM ([1]; 20 µM compound): ~18%
